Here are results for one molecule from patent publication US20230372393A1, “METHODS FOR ALLOGENEIC HEMATOPOIETIC STEM CELL TRANSPLANTATION” (Orca Biosystems, Inc., priority 2020, published 2023).

Assay type in all cases: in vivo, human
For assay [1], the system named is subjects with advanced hematologic malignancies undergoing myeloablative alloHCT. The assay is described as follows: Clinical study: chronic GVHD (NIH criteria). The settings on record: serum tacrolimus trough higher versus lower than 4 ng/ml, FIG. 9B. Here is the method:
(§1) A clinical study was conducted in subjects with advanced hematologic malignancies undergoing myeloablative allogeneic hematopoietic cell transplantation (alloHCT).
(§2) Personnel who identified subjects for the SOC cohort were blinded as to their clinical outcomes.

Assay [2] has the same test system. The assay is described as follows: Clinical study: GVHD and relapse-free survival, cGVHD-free survival. The settings on record: tacrolimus-only relative to sirolimus-only patients, FIG. 7G.
Source text: GVHD and relapse-free survival is a composite readout that can refer to survival without relapse or Grade ≥3 acute or extensive chronic GVHD.
In assay [3] the test system is CD3+ cells of donor origin. The assay is described as follows: Donor T cell chimerism versus tacrolimus trough level. Conditions: lower average trough tacrolimus level through day +30, p=0.0011, FIG. 9H. Here is the method:
Peripheral blood samples from subjects were also analyzed for chimerism as part of the follow-up procedures. The blood samples were processed to select for various cell populations using standard markers for each cell population. Blood was drawn from subjects that received the composition of the disclosure on day +28, day +56, day +100, day +180 and day +365 post-transplant, and the frequency of peripheral blood cells were quantified by flow cytometry (Markers used for analysis are described in Table 16).
Without wishing to be bound by a theory, it can be hypothesized that an improved chimerism due to higher tacrolimus levels may have led to the improved GVHD and survival outcomes in patients.

Assay [4] has as its system subjects with advanced hematologic malignancies undergoing myeloablative alloHCT. The assay is described as follows: Clinical study: overall survival. Conditions: tacrolimus-only relative to sirolimus-only patients, FIG. 7H.
Source text: Overall survival: OS was defined as the time from the date of transplant to the date of death from any cause or, for surviving patients, to the date of last follow-up.
For assay [5] the test system is unchanged. The assay is described as follows: Clinical study: acute GVHD (MAGIC criteria). Here is the method: as §1, §2
Acute GVHD was staged and graded per MAGIC Standardization criteria.
Acute GVHD: Acute GVHD (aGVHD) is a significant driver of morbidity and mortality associated with alloHCT, reducing the severity and incidence of aGVHD has the potential to greatly benefit graft recipients. Acute GVHD was staged and graded per Mount Sinai Acute GvHD International Consortium (MAGIC) Standardization criteria.

For assay [6] the test system is unchanged. The assay is described as follows: Clinical study: disease relapse and disease status. The settings on record: tacrolimus-only relative to sirolimus-only patients. Here is the method:
as §1, §2

For the molecule `C=CC[C@@H]1/C=C(\C)C[C@H](C)C[C@H](OC)[C@H]2O[C@@](O)(C(=O)C(=O)N3CCCC[C@H]3C(=O)O[C@H](/C(C)=C/[C@@H]3CC[C@@H](O)[C@H](OC)C3)[C@H](C)[C@@H](O)CC1=O)[C@H](C)C[C@@H]2OC` [tacrolimus], the “chronic GVHD rates” value in assay [1] is “improvements”. The GRFS rates entry in assay [2] is “improved”. Further, the “engraftment of donor T cells (T cell chimerism)” value in assay [3] is given as “increased engraftment of donor T cells”. Moreover, in assay [4], the overall survival rates entry was “improved”. The GVHD rates entry in assay [5] (average serum tacrolimus trough level higher than 4 ng/ml for the first 30 days post-transplant, FIG. 8A) is given as “lower GVHD rates”; in assay [5] (same conditioning regimen (Bu/Cy or TBI/BFT), trough higher versus lower than 4 ng/ml, FIGS. 9C-G) it was “improvement in GVHD rates”; in assay [5] (tacrolimus only versus sirolimus only prophylaxis, FIGS. 7A-C), “higher GVHD rates”. For the same molecule, in assay [5] (serum tacrolimus trough higher versus lower than 4 ng/ml, FIG. 9A), the “Acute GVHD rates” value was “significant improvement”. In addition, the “survival (FIG. 7E)” value in assay [6] is “improved”. Moreover, the relapse rates result in assay [6] (FIG. 7F) is “improved”.
